Source: patent US20040191172A1, “Preventive or therapeutic agents for dermatitis or alopecia, evaluation method of the agents, and transgenic mouse” (priority 2003, published 2004)

System: K5/IL-18 Tg (+) mice
Test: Suppression of spontaneous dermatitis in K5/IL-18 transgenic (Tg (+)) mice, appearance and HE histopathology of back skin
Type: in vivo
Conditions: 1% (10 mg/mL) applied to back skin for consecutive seven days
Excerpt: The spontaneous dermatitis (A) refers to an inflammation that reaches its peak approximately on the 8th to 12th day after birth of an IL-18-introduced mouse and disappears after about four weeks and that has been identified by the inventors of the present invention for the first time. Pathologically speaking, in this inflammation, acanthosis (epidermal thickening) , hyperkeratosis, and inflammatory cell infiltrations that neutrophilic leukocytes are contained in dermis can be observed in dermal tissue, a slight sponge state is present in the epidermal base, and abscess formation in the cuticle due to epidermal neutrophilic infiltrations is observed (FIG. 3).
The evaluation method of the present invention can be performed as a method for screening agents for preventing/treating autoimmune dermatitis. The screening can be performed, for example, by the procedures of administrating an agent to be tested in either stage, before or after the occurrence of the peak of spontaneous dermatitis, and comparing mice without administration (control) in terms of the presence or the absence of peak occurrence, the size of the peak, the speed of peak disappearance or the like.
Next, the agent of preventing/treating dermatitis of the present invention will be described more specifically by way of examples. […]

C[C@@H]1C[C@H]2[C@@H]3CCC4=CC(=O)C=C[C@]4(C)[C@@]3(F)[C@@H](O)C[C@]2(C)[C@@]1(O)C(=O)CO [dexamethasone]
death from side effects (share of treated group): about a half
